{
  "source": "patent US6344462B1",
  "about": "“Heterocyclic compounds as bradykinin antagonists” (Fujisawa Pharmaceutical Co., Ltd., priority 1995, dated 2002)",
  "note": "Counter-ions that a name gives are not always drawn.",
  "data": [
    {"target": "T1, Bradykinin receptor (Cavia porcellus, UniProt O70526)", "T1 construct": "from tissue; host or cells: guinea pig ileum, crude membrane preparation", "T1 sequence (O70526 1-372)": "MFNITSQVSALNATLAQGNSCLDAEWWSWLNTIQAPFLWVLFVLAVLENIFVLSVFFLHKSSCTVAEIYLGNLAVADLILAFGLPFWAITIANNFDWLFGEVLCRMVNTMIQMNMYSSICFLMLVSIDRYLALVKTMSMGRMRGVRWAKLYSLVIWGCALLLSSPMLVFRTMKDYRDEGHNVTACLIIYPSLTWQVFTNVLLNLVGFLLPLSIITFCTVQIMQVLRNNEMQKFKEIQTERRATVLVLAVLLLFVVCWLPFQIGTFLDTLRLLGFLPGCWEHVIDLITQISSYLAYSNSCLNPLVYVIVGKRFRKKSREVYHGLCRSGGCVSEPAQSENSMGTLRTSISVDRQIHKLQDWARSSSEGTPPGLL", "test": "3H-Bradykinin receptor binding (crude guinea pig ileum membrane)", "conditions": "crude ileum membrane of male Hartly strain guinea pigs; 3H-Bradykinin 0.06 nM; room temperature, 60 minutes; read-out: Inhibition of 3H-Bradykinin binding IC50", "procedure": "^3H-Bradykinin receptor binding\n(a) Crude ileum membrane preparation\nMale Hartly strain guinea pigs were sacrificed by decapitation. The ileum was removed and homogenized in buffer (50 mM trimethylaminoethanesulfonic acid (TES), 1 mM 1,10-phenanthroline pH 6.8). The homogenate was centrifuged (1000×g, 20 minutes) to remove tissue clumps and the supernatant was centrifuges (100,000×g, 60 minutes) to yield a pellet. The pellet was resuspended in buffer (50 mM TES, 1 mM 1,10-phenanthroline, 140 mg/l bacitracin, 1 mM dithiothreiol, 0.1% bovine serum albumin pH 6.8) and homogenized with a glass-teflon homogenizer to yield suspension which was referred to as crude membrane suspension. The obtained membrane suspension was stored at −80° C. until use.\n(b) ^3H-Bradykinin binding to the membrane\nThe frozen crude membrane suspension was thawed. In binding assays, ^3H-Bradykinin (0.06 nM) and the test compound were incubated with 50 μl of the membrane suspension at room temperature for 60 minutes in a final volume of 250 μl. Separation of receptor-bound from free ^3H-Bradykinin is achieved by immediate filtration under vacuum and washed three times with 5 ml of ice-cold buffer (50 mM Tris-HCl pH 7.5). Non-specific binding was defined as binding in the presence of 0.1 μM Bradykinin. The radioactivity retained on rinsed filters was determined by a liquid-scintillation counter.", "units": {"IC50": "nM"}, "values": [
      {"smiles": "Cc1ccc2cccc(OCc3c(Cl)ccc(-n4cccc4CNC(=O)/C=C/c4ccc(/C=C/c5ccncc5)nc4)c3Cl)c2n1", "note": "[15 (trihydrochloride), 1-[2,4-Dichloro-3-(2-methylquinolin-8-yloxymethyl)phenyl]-2-[(E)-3-[6-[(E)-2-(pyridin-4-yl)vinyl]pyridin-3-yl]acryloylaminomethyl]pyrrole]", "IC50": 2.6},
      {"smiles": "CCOC(=O)c1ccc(/C=C/C(=O)NCc2cccn2-c2ccc(Cl)c(COc3cccc4ccc(C)nc34)c2Cl)cn1", "note": "[16-(1), 1-[2,4-Dichloro-3-(2-methylquinolin-8-yloxymethyl)phenyl]-2-[(E)-3-(6-ethoxycarbonylpyridin-3-yl)acryloylaminomethyl]pyrrole]", "IC50": 3.3},
      {"smiles": "Cc1nc2c(OCc3c(Cl)ccc(-n4cccc4CNC(=O)/C=C/c4ccc(/C=C/c5ccncc5)nc4)c3Cl)cccn2c1Br", "note": "[23-(3) (trihydrochloride), 1-(3-(3-bromo-2-methylimidazo[1,2-a]pyridin-8-yloxymethyl)-2,4-dichlorophenyl]-2-[(E)-3-[6-[(E)-2-(pyridin-4-yl)vinyl]pyridin-3-yl]acryloylaminomethyl]pyrrole]", "IC50": 4.3},
      {"smiles": "CNC(=O)c1ccc(/C=C/C(=O)NCc2cccn2-c2ccc(Cl)c(COc3cccc4c(-n5ccnc5)cc(C)nc34)c2Cl)cc1", "note": "[33 (dihydrochloride)]", "IC50": 3.2},
      {"smiles": "CNC(=O)c1ccc(/C=C/C(=O)NCc2ccccc2-c2ccc(C)c(COc3cccc4ccc(C)nc34)c2C)cc1", "note": "[40-(6)]", "IC50": 2.3},
      {"smiles": "CNC(=O)c1ccc(C=CC(=O)NCc2sccc2-c2ccc(C)c(COc3cccc4ccc(C)nc34)c2C)cc1", "note": "[45-(6) (hydrochloride), 3-[2,4-Dimethyl-3-(2-methylquinolin-8-yloxymethyl)-phenyl]-2-[4-(methylcarbamoyl)-cinnamoylaminomethyl]thiophene]", "IC50": 2.8},
      {"smiles": "CNC(=O)c1ccc(C=CC(=O)NC/C=C\\c2ccc(Cl)c(COc3cccc4ccc(C)nc34)c2Cl)cc1OC", "note": "[50-(1) (hydrochloride), 8-[2,6-Dichloro-3-[(Z)-3-[3-methoxy-4-(methylcarbamoyl)cinnamoylamino]-1-propenyl]benzyloxy]-2-methylquinoline]", "IC50": 7.4}
    ]},
    {"tested_on": "not given", "test": "not given", "conditions": "not given", "units": {"melting point": "°C"}, "values": [
      {"smiles": "Cc1ccc2cccc(OCc3c(Cl)ccc(C(=O)N4CCNCC4)c3Cl)c2n1.Cl.Cl", "melting point": "195 to 197"},
      {"smiles": "CNC(=O)c1ccc(C=CC(=O)NC/C=C\\c2ccc(Cl)c(COc3cccc4ccc(C)nc34)c2Cl)cc1OC", "note": "(as salt: hydrochloride) [50-(1) (hydrochloride), 8-[2,6-Dichloro-3-[(Z)-3-[3-methoxy-4-(methylcarbamoyl)cinnamoylamino]-1-propenyl]benzyloxy]-2-methylquinoline]", "melting point": "222 to 225"},
      {"smiles": "COc1nc2c(OCc3c(Cl)ccc(-n4cccc4CNC(=O)/C=C/c4ccc(NC(C)=O)nc4)c3Cl)cccc2n1C", "note": "[Example 21, 2-[(E)-3-(6-acetamidopyridin-3-yl)acryloylaminomethyl]-1-[2,4-dichloro-3-(2-methoxy-1-methyl-1H-benzimidazol-4-yloxymethyl)phenyl]pyrrole]", "melting point": "233 to 240"}
    ]}
  ]
}
